Experimental data from PubChem BioAssay AID651919 (Sanford-Burnham Center for Chemical Genomics, 2012).
Several values for one entry are separate records, joined by “and”; a condition that tells them apart may be missing. Identical values can stand only once. Activity calls are given as the source filed them.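 How the source made its calls: active means CXCR6 IC50 below 5 µM, and the CXCR5 counter screen gives no IC50 under five times the CXCR6 IC50; inactive means the rest.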

Key:
[1] = target: C-X-C chemokine receptor type 5 (Homo sapiens) (UniProt P32302); experiment: antagonism of CXCR6 versus CXCR5 signaling – cell-based, CHO-K1 PathHunter beta-arrestin, luminescence, set 4, selectivity assay for CXCR6 antagonist project, profiling panel (AID 651919); conditions: CHO-K1 PathHunter CXCR5 beta-arrestin, CXCR5, mean of runs
[2] = target: C-X-C chemokine receptor type 6 (Homo sapiens) (UniProt O00574); experiment: as above; conditions: CHO-K1 PathHunter CXCR6 beta-arrestin, CXCR6, mean of runs
Sequence of C-X-C chemokine receptor type 6 (Homo sapiens) (O00574 whole entry, looked up): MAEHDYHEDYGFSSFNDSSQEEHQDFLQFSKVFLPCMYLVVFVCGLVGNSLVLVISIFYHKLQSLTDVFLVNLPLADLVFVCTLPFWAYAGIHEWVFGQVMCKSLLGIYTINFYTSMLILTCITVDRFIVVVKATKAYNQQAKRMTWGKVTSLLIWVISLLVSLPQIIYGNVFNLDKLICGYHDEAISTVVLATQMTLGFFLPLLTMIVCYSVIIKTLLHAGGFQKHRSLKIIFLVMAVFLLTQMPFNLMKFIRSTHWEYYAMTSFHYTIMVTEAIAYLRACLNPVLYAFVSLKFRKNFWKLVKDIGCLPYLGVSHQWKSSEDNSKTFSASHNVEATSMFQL

IC50 [1]	IC50 [2]	Structure (SMILES)
> 79 µM (inactive)	inactive	COc1ccc(CN2C3CCCC2CC(NC(=O)c2cc(OC)c(OC)c(OC)c2)C3)cc1 (stereo not drawn)
> 79 µM (inactive)	> 79 µM (inactive)	COc1ccc(C(=O)NC2CC3CCCC(C2)N3CC(=O)Nc2ccc(Cl)cc2)cc1OC (stereo not drawn)
> 79 µM (inactive)	> 79 µM (inactive)	COc1ccc(C(=O)NC2CC3CCCC(C2)N3CC(=O)Nc2ccc(F)cc2)cc1 (stereo not drawn)
> 79 µM (inactive)	> 79 µM (inactive)	COc1cccc(C(=O)NC2CC3CCCC(C2)N3CC(=O)Nc2ccc(F)cc2)c1 (stereo not drawn)
> 79 µM (inactive)	> 79 µM (inactive)	COc1ccc(C(=O)NC2CC3CCCC(C2)N3CC(=O)Nc2ccc(C)cc2)cc1OC (stereo not drawn)
> 79 µM (inactive)	> 79 µM (inactive)	COc1ccc(NC(=O)CN2C3CCCC2CC(NC(=O)c2ccc4c(c2)OCO4)C3)cc1 (stereo not drawn)
> 79 µM (inactive)	> 79 µM (inactive)	COc1cc(OC)cc(C(=O)NC2CC3CCCC(C2)N3CC(=O)Nc2ccc(C)cc2)c1 (stereo not drawn)
> 79 µM (inactive)	1.85 µM	COc1ccccc1NC(=O)CN1C2CCCC1CC(NC(=O)c1cc(OC)c(OC)c(OC)c1)C2 (stereo not drawn)
> 79 µM (inactive)	> 79 µM (inactive)	O=C(CN1C2CCCC1CC(NC(=O)c1ccc3c(c1)OCO3)C2)Nc1ccccc1 (stereo not drawn)
> 79 µM (inactive)	inactive	COc1cc(C(=O)NC2CC3CCCC(C2)N3CC(=O)Nc2ccc(C)cc2)cc(OC)c1OC (stereo not drawn)
> 79 µM (inactive)	> 79 µM (inactive)	COc1ccc(NC(=O)CN2C3CCCC2CC(NC(=O)c2cc(OC)cc(OC)c2)C3)cc1 (stereo not drawn)

Continued, compound first:

Structure (SMILES)	IC50 [1]	IC50 [2]
COc1ccc(C(=O)NC2CC3CCCC(C2)N3CC(=O)Nc2ccc(F)cc2)cc1OC (stereo not drawn)	> 79 µM (inactive)	> 79 µM (inactive)
COc1cc(OC)cc(C(=O)NC2CC3CCCC(C2)N3CC(=O)Nc2ccccc2)c1 (stereo not drawn)	12.5 µM	> 79 µM (inactive)
COc1ccc(C(=O)NC2CC3CCCC(C2)N3CC(=O)Nc2ccccc2)cc1 (stereo not drawn)	> 79 µM (inactive)	> 79 µM (inactive)
COc1ccc(C(=O)NC2CC3CCCC(C2)N3CC(=O)Nc2ccc(C)cc2)cc1 (stereo not drawn)	> 79 µM (inactive)	> 79 µM (inactive)
COc1ccc(NC(=O)CN2C3CCCC2CC(NC(=O)c2ccc(OC)cc2)C3)cc1 (stereo not drawn)	> 79 µM (inactive)	> 79 µM (inactive)
COc1cccc(C(=O)NC2CC3CCCC(C2)N3CC(=O)Nc2ccccc2)c1 (stereo not drawn)	> 79 µM (inactive)	> 79 µM (inactive)
COc1ccc(NC(=O)CN2C3CCCC2CC(NC(=O)c2cccc(OC)c2)C3)cc1 (stereo not drawn)	> 79 µM (inactive)	> 79 µM (inactive)
O=C(CN1C2CCCC1CC(NC(=O)c1ccccc1)C2)Nc1ccccc1 (stereo not drawn)	> 79 µM (inactive)	> 79 µM (inactive)
COc1ccc(C(=O)NC2CC3CCCC(C2)N3CC(=O)Nc2ccc(Cl)cc2)cc1 (stereo not drawn)	> 79 µM (inactive)	> 79 µM (inactive)
COc1cccc(C(=O)NC2CC3CCCC(C2)N3CC(=O)Nc2ccc(C)cc2)c1 (stereo not drawn)	> 79 µM (inactive)	> 79 µM (inactive)
COc1ccc(C(=O)NC2CC3CCCC(C2)N3CC(=O)Nc2ccccc2)cc1OC (stereo not drawn)	> 79 µM (inactive)	> 79 µM (inactive)
COc1cc(OC)cc(C(=O)NC2CC3CCCC(C2)N3CC(=O)Nc2ccc(F)cc2)c1 (stereo not drawn)	43.4 µM	> 79 µM (inactive)
COc1cc(C(=O)NC2CC3CCCC(C2)N3CC(=O)Nc2ccccc2Cl)cc(OC)c1OC (stereo not drawn)	> 79 µM (inactive)	0.356 µM and 0.137 µM
COc1ccc(NC(=O)CN2C3CCCC2CC(NC(=O)c2cc(OC)c(OC)c(OC)c2)C3)cc1 (stereo not drawn)	> 79 µM (inactive)	inactive
COc1cc(C(=O)NC2CC3CCCC(C2)N3CC(=O)Nc2ccccc2)cc(OC)c1OC (stereo not drawn)	> 79 µM (inactive)	3.4 µM and 4.74 µM
COc1ccc(NC(=O)CN2C3CCCC2CC(NC(=O)c2ccc(OC)c(OC)c2)C3)cc1 (stereo not drawn)	> 79 µM (inactive)	> 79 µM (inactive)
COc1cc(C(=O)NC2CC3CCCC(C2)N3CC(=O)Nc2ccc(Cl)cc2)cc(OC)c1OC (stereo not drawn)	> 79 µM (inactive)	1.48 µM
O=C(CN1C2CCCC1CC(NC(=O)c1ccc3c(c1)OCO3)C2)Nc1ccc(Cl)cc1 (stereo not drawn)	> 79 µM (inactive)	> 79 µM (inactive)
COc1cccc(C(=O)NC2CC3CCCC(C2)N3CC(=O)Nc2ccc(Cl)cc2)c1 (stereo not drawn)	> 79 µM (inactive)	> 79 µM (inactive)
Cc1ccc(NC(=O)CN2C3CCCC2CC(NC(=O)c2ccc4c(c2)OCO4)C3)cc1 (stereo not drawn)	> 79 µM (inactive)	> 79 µM (inactive)
COc1cc(OC)cc(C(=O)NC2CC3CCCC(C2)N3CC(=O)Nc2ccc(Cl)cc2)c1 (stereo not drawn)	> 79 µM (inactive)	> 79 µM (inactive)
O=C(CN1C2CCCC1CC(NC(=O)c1ccc3c(c1)OCO3)C2)Nc1ccc(F)cc1 (stereo not drawn)	> 79 µM (inactive)	> 79 µM (inactive)
COc1cc(C(=O)NC2CC3CCCC(C2)N3CC(=O)Nc2ccc(F)cc2)cc(OC)c1OC (stereo not drawn)	> 79 µM (inactive)	inactive
